Patent US20240336615A1, “CYCLOPROPYL-(HETERO)ARYL-SUBSTITUTED ETHYL-SULFOXIME-PYRIDINE DERIVATIVES” (Boehringer Ingelheim Vetmedica GmbH, priority 2023, published 2024)

Tests used:
[1] = system: Spodoptera litura; test: Insecticidal test on Spodoptera litura (Example 14); assay type: in vivo; details: foliar, 192 h, cabbage leaf dip, 2nd-instar larvae, 8 days after inoculation, read-out: activity level (corrected mortality rate)
Procedure: The compounds of formula (I), (Ia) and/or (Ib) of the present invention or salts thereof are separately dispersed in water and diluted to 500 ppm and 50 ppm. Cabbage leaves are dipped in the dispersion for about 30 seconds. After air dried, the leaves are placed in a plastic Petri dish with a diameter of 9 cm and inoculated with ten 2nd-instar larvae of Spodoptera litura, after which the dish is closed and then allowed to stand in a room at 25° C. 8 days after the inoculation, the numbers of the dead and alive insects are counted. The corrected mortality rate is calculated according to the following formula and the insecticidal activity is evaluated according to the following criteria.
[formula] [formula] • A: the corrected mortality rate is 100% • B: the corrected mortality rate is 90 to 99% • C: the corrected mortality rate is 80 to 89% • D: the corrected mortality rate is 50 to 79%

[2] = system: adult R. sanguineus ticks; test: Contact activity against adult Rhipicephalus sanguineus (Example 5); details: coated vials, 48 hours post-treatment, read-out: EC50 (contact activity, percentage mortality)
Procedure: Compounds of formulae (I), (Ia) and/or (Ib) formulated in 100% DMSO are diluted in a solution containing acetone and Triton X-100 (0.02%). The resulting formulation is used to coat the inner walls of glass scintillation vials and the filter paper covering the cap of the vial. Once dried, ten adult R. sanguineus ticks are added to the vials. The vials are incubated at 24° C., 95% relative humidity, and 12 hours of light/12 hours of dark until evaluation. Ticks are visually evaluated for mortality at 48 hours post-treatment. Compound efficacy at a given dose is expressed as percentage mortality. A dose response series is implemented to determine EC50 values.

[3] = system: adult Ctenocephalides felis fleas; test: Contact activity against adult Ctenocephalides felis (Example 4); details: adult C. felis, coated pipe cleaner in vial, 72 hours post-treatment, read-out: EC50 (contact activity, percentage mortality)
Procedure: Compounds of formulae (I), (Ia) and/or (Ib) dissolved in 100% DMSO are diluted in acetone to a desired concentration. The resulting formulation is used to coat the fibers of a 0.5-inch-long piece of pipe cleaner placed in a glass scintillation vial. The vial is capped with a rubber gasket and filter paper insert. After the acetone has evaporated, ten adult Ctenocephalides felis fleas are added to each vial. The vials are then incubated at 22° C., 80% relative humidity, and 12 hours of light/12 hours of dark until a visual evaluation for mortality is performed at 72 hours post-treatment. Compound efficacy at a given dose is expressed as percentage mortality and adjusted to remove background mortality observed in control vials containing DMSO only. A dose response series of treated vials is implemented to determine EC50 values.

[4] = system: Laodelphax striatellus; test: Insecticidal test on Laodelphax striatellus (Example 16); assay type: in vivo; details: 192 h, rice seedling dip, 3rd-instar nymphs, 8 days after inoculation, read-out: activity level (corrected mortality rate)
Procedure: The compounds of formula (I), (Ia) and/or (Ib) of the present invention or salts thereof are separately dispersed in water and diluted to 500 ppm and 50 ppm. Rice plant seedlings are dipped in the dispersion for about 30 seconds. After air dried, the seedlings are put into a separate glass test tube and inoculated with ten 3rd-instar nymphs of Laodelphax striatellus and then the glass test tube is kept in a room at 25° C. 8 days after the inoculation, the numbers of the dead and alive insects are counted. The corrected mortality rate is calculated according to the following formula and the insecticidal activity is evaluated according to the following criteria.

[5] = system: Myzus persicae; test: Insecticidal test on Myzus persicae (Example 17); assay type: in vivo; details: 144 h, foliar application on Chinese cabbage, 6 days after application, read-out: control efficacy level (control rate)
Description: The compounds of formula (I), (Ia) and/or (Ib) of the present invention or salts thereof are separately dispersed in water and diluted to 500 ppm and 50 ppm. Chinese cabbage plants are planted in plastic pots (diameter: 8 cm, height: 8 cm). Aphids (Myzus persicae) are propagated on the plants and then the number of surviving aphids is counted. The dispersion is applied to the foliage of the potted plants. After the plants are air dried, these are kept in a greenhouse. 6 days after the application, the number of the alive insects is counted on the plants. The control rate is calculated according to the following formula and the control efficacy is evaluated according to the following criteria. [formula] • Ta: the number of alive insects before the foliar application in a treated plot • T: the number of alive insects after the foliar application in a treated plot • Ca: the number of alive insects before the foliar application in an untreated plot • C: the number of alive insects after the foliar application in an untreated plot • A: the control rate is 100% • B: the control rate is 90 to 99% • C: the control rate is 80 to 89% • D: the control rate is 50 to 79%

[6] = system: Plutella xylostella; test: Insecticidal test on Plutella xylostella (Example 15); assay type: in vivo; details: 144 h, Chinese cabbage seedling dip, 6 days after dip treatment, read-out: activity level (corrected mortality rate)
Procedure: The compounds of formula (I), (Ia) and/or (Ib) of the present invention or salts thereof are separately dispersed in water and diluted to 500 ppm and 50 ppm. Ten adults of Plutella xylostella are released onto Chinese cabbage seedlings and allowed to lay eggs thereon. 2 days after the release of the adults, the seedling is dipped in the dispersion for about 30 seconds. After air dried, the seedling is kept in a room at 25° C. 6 days after the dip treatment, the numbers of the dead and alive insects are counted. The corrected mortality rate is calculated according to the following formula and the insecticidal activity is evaluated according to the following criteria.

[7] = system: adult C. felis fleas; test: Ingestion activity against adult Ctenocephalides felis, membrane feeding, alternative method (Examples 7 and 13); details: Ctenocephalides felis
Procedure: Selected compounds of formula (I), (Ia) and (Ib) and compound “125” of WO 2021/033141 dissolved in 100% DMSO are diluted in bovine blood with sodium heparin anti-coagulant. The resulting formulation is offered via an artificial membrane feeding system to approximately 15 adult C. felis fleas previously dispensed into 24-well plates. The plates are then incubated in a double-chambered device. Visual evaluation for mortality is performed at 48 hours post-treatment. Compound efficacy at a given dose is expressed as percentage mortality and determined by normalization to positive and negative controls. A dose response series is implemented to determine EC50 values.
Compounds of formulae (I), (Ia) and/or (Ib) dissolved in 100% DMSO are diluted in bovine blood with sodium heparin anti-coagulant. The resulting formulation is offered via an artificial membrane feeding system to approximately 15 adult C. felis fleas previously dispensed into 24-well plates. The plates are then incubated in a double-chambered device. Visual evaluation for mortality is performed at 48 hours post-treatment. Compound efficacy at a given dose is expressed as percentage mortality and determined by normalization to positive and negative controls. A dose response series is implemented to determine EC50 values.

[8] = system: adult C. felis fleas; test: Ingestion activity against adult Ctenocephalides felis, membrane feeding, motility (Example 6); details: 48 h, bovine blood via artificial membrane, 48h post treatment, read-out: EC50 (ingestion activity, % motility reduction)
Procedure: Compounds of formulae (I), (Ia) and/or (Ib) dissolved in 100% DMSO are added to bovine blood and offered via an artificial membrane feeding system to adult C. felis fleas. The motility of fleas is then visually inspected 48h post treatment. Efficacy is expressed in % motility reduction compared to controls containing blood treated with DMSO only. A dose response series is implemented to determine EC50 values.

[9] = adult C. felis, bovine blood with sodium heparin, membrane feeding, 48 hours post-treatment, read-out: EC50 (ingestion activity, percentage mortality, alternative method)
[10] = alternative method according to Example 7, mortality at 48 hours post-treatment, read-out: C. felis membrane feeding (ingestion/blood feeding) activity EC50

Row | SMILES | EC50 [8] | mortality at 50 ppm [1] | EC50 [2] | EC50 [3] | mortality at 50 ppm [4] | pest or weed control at 50 ppm ([5]; 50 ppm) | mortality at 50 ppm [6] | EC50 [7, 9] | EC50 [7, 10] | mortality at 500 ppm [1] | mortality at 500 ppm [4] | pest or weed control at 500 ppm [5] | mortality at 500 ppm [6]
1 | CCS(=N)(=O)c1cc(-c2noc(C3(C(F)(F)F)CC3)n2)cnc1-c1nc2cc(C(F)(F)C(F)(F)F)cnc2n1C (centres unmarked) [Compound 3] | < 1 µM | 100% | 10 to 100 µM | < 10 µM | 100% | 100% | 100% | < 1 µM | 0.448 µM |  |  |  | 
2 | CCS(=N)(=O)c1cc(-c2noc(C3CC3)n2)cnc1-c1nc2cc(C(F)(F)C(F)(F)F)nnc2n1C (centres unmarked) [Compound 8] | 1 to 10 µM |  | 10 to 100 µM | < 10 µM |  |  |  | < 1 µM | 0.643 µM |  | 100% | 100% | 100%
3 | CCS(=N)(=O)c1cc(-c2cc(C3CC3)no2)cnc1-c1nc2cc(C(F)(F)C(F)(F)F)cnc2n1C (centres unmarked) [Compound 19] | < 1 µM |  | 10 to 100 µM | < 10 µM |  |  |  | 1 to 10 µM |  | 100% | 100% | 100% | 100%

Now from value to compound, other results behind:

Row | EC50 [8] | SMILES | mortality at 50 ppm [1] | EC50 [2] | EC50 [3] | mortality at 50 ppm [4] | pest or weed control at 50 ppm ([5]; 50 ppm) | mortality at 50 ppm [6] | EC50 [7, 9] | EC50 [7, 10] | mortality at 500 ppm [1] | mortality at 500 ppm [4] | pest or weed control at 500 ppm [5] | mortality at 500 ppm [6]
4 | 1 to 10 µM | CCS(=N)(=O)c1cc(-c2noc(C3(F)CC3)n2)cnc1-c1nc2cc(C(F)(F)C(F)(F)F)cnc2n1C (centres unmarked) [Compound 5] |  | 10 to 100 µM | < 10 µM |  |  |  | 1 to 10 µM | 1.08 µM | 100% | 100% | 100% | 100%
5 | < 1 µM | CCS(=N)(=O)c1cc(-c2cc(C3CC3)ns2)cnc1-c1nc2cc(C(F)(F)C(F)(F)F)cnc2n1C (centres unmarked) [Compound 20] | 100% | 10 to 100 µM | < 10 µM | 100% |  | 100% | 1 to 10 µM |  |  |  |  | 
